Patent publication US20210061859A1, “NTCP Inhibitor” (The University of Tokyo, priority 2018, published 2021)
Values after ≈ are worked out from the molar mass of the structure shown. Where a SMILES comes first, the peptide text is derived from it. Bridges are numbered along the chain shown (N, C = ends). [ ]: non-standard residue; d: D form. Sar = CNCC(=O)O

Experiments:
HepG2-hNTCP-C4 cells = conditions: HBV infection assay
human NTCP = molecular target: T1, human NTCP (Homo sapiens, UniProt Q14973); assay: Surface plasmon resonance binding to immobilized recombinant NTCP; conditions: single-cycle kinetics, 1:1 binding model, NTCP immobilized on NTA-Ni2+, read-out: Kd
T1 construct: made in house; host or cells: wheat germ cell-free protein synthesis system
T1 sequence (Q14973 1-349): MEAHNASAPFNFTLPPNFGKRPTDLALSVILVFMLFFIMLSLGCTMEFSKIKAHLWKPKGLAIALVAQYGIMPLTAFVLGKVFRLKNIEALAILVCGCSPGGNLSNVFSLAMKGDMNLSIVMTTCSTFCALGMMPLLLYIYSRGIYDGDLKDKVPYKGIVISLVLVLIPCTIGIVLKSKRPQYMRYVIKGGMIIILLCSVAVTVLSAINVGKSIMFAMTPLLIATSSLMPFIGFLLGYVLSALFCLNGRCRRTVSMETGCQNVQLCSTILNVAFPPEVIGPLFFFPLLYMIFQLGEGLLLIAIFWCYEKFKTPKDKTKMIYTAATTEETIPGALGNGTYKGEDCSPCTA
Experimental: (§1) FIG. 7 is a diagram showing the NTCP association constant of a peptide identified by first RaPID screening. A single-cycle reaction kinetics experiment was conducted using NTCP immobilized on surface (NTA-Ni^2+) involving varying concentrations of a cyclic peptide analyte. In each case, as shown in the drawing, the peptide was tested with 4-fold serial dilutions starting from the highest concentration of 200 or 1000 nM. A dissociation constant (KD) was determined using a 1:1 binding model.
as §1, with “9” for “7”, “focused library” for “first”, “association constant” for “reaction kinetics”
The association constant of each peptide for human NTCP was measured using a Biacore T200 apparatus (GE Healthcare Japan Corp.). The running buffer solution used was HBS-P+ (10 mM HEPES, 150 mM NaCl, and 0.05 vol % surfactant P20, pH 7.4) containing 0.1 vol % DMSO and 1 mM β-dodecyl-maltoside. 100 nM recombinant NTCP was immobilized on a NTA chip treated with Ni^2+ according to the manufacturer's instructions (baseline response: 1000 to 3000 refraction units). Peptides were injected as analytes at a flow rate of 60 μL/min, and association constants were modelled using a 1:1 binding model.

HBV genotype D [1] = type: cell-based, hepatitis B virus; conditions: primary human hepatocytes, purified HBV as inoculum, HBs antigen in culture supernatant; read-out: 50% inhibitory concentrations (IC50), HBs antigen
Experimental: FIG. 2 is a diagram showing the anti-HBV effect of a peptide from initial screening. FIG. 2(a) is a schematic diagram of a HepG2-hNTCP-C4 infection experiment. HepG2-hNTCP-C4 cells were pretreated with a peptide for 2 hours and subsequently inoculated with HBV for 16 hours in the presence of the peptide. Free HBV and peptide were washed off. Then, the cells were further cultured for 12 days in the absence of the peptide, and HBV infection was evaluated on the basis of measurement of HBs antigen in the culture supernatant. The filled boxes and the broken-line boxes depict periods for which the treatment was performed and periods for which the treatment was not performed, respectively. […] HBV infection was evaluated by monitoring HBs antigen secreted into a culture supernatant on 12 days after inoculation by ELISA. In FIG. 2(c), a cell survival rate was measured by MTT assay.
FIG. 3 is a diagram showing the anti-HBV effect of a peptide by focused library screening. […] HBV infection was evaluated by measurement of HBe antigen (a), and a cell survival rate (b) was evaluated by MTT assay as shown in FIG. 2.
HBV genotype D used in this study (FIGS. 1 to 3) was derived from the culture supernatant of Hep38.7-Tet cells, and prepared by a known method (the method described in Tsukuda, S. et al. Dysregulation of retinoic acid receptor diminishes hepatocyte permissiveness to hepatitis B virus infection through modulation of sodium taurocholate cotransporting polypeptide (NTCP) expression. The Journal of biological chemistry 290, 5673-5684 (2015), and Ogura, N., Watashi, K., Noguchi, T. & Wakita, T. Formation of covalently closed circular DNA in Hep38.7-Tet cells, a tetracycline inducible hepatitis B virus expression cell line. Biochemical and biophysical research communications 452, 315-321 (2014)). Purified HBV (FIG. 1(d)) was prepared by ultrafiltration to remove an excess of components in FBS and medium. HBV genotypes A, B, and C and genotype C having the L180M/S202G/M204V mutations (nucleoside analog-resistant HBV) or G145R substitution (vaccine-escape HBV) (FIG. 4(d)) were prepared from the culture supernatant of HepG2 cells transfected with the corresponding expression plasmid. HBV was inoculated at 12,000 (FIGS. 1(a), 1(b), and 1(d)), 1000 to 2000 (FIG. 2(b)) or 500 (FIGS. 3(a) and 4(d)) genome equivalents (GEq)/cell in the presence of 4% polyethylene glycol 8000 (PEG8000) and incubated at 37° C. for 16 hours by a known method (the method described in Watashi, K. et al. Interleukin-1 and tumor necrosis factor-alpha trigger restriction of hepatitis B virus infection via a cytidine deaminase activation-induced cytidine deaminase (AID). The Journal of biological chemistry 288, 31715-31727 (2013)).
HBe antigen was detected by a chemiluminescence immunoassay (CLIA) (LSI Medience Corp.). HBs antigen was quantified by enzyme-linked immunosorbent assay (ELISA) as described in a known method (the method described in Watashi, K. et al. Interleukin-1 and tumor necrosis factor-alpha trigger restriction of hepatitis B virus infection via a cytidine deaminase activation-induced cytidine deaminase (AID). The Journal of biological chemistry 288, 31715-31727 (2013)).
Subsequently, the present inventors evaluated the effect of the 10 peptides described above on HBV infection in primary human hepatocytes. […] HBV infection was evaluated by measuring HBs antigen in the culture supernatant. […]

HBV genotype D [2] = assay: HBV infection assay in HepG2-hNTCP-C4 cells (HBs and HBc antigens); type: cell-based, hepatitis B virus; conditions: 100 nM entecavir
[3] = molecular target: human NTCP on cells (HepG2-hNTCP-C4 cells overexpressing the human NTCP gene; primary human hepatocytes) (human) (UniProt Q14973); assay: cell-based or functional assay
[4] = molecular target: T2, His-tagged recombinant NTCP protein (human sodium taurocholate cotransporting polypeptide) (human), Q14973; assay: SPR (Biacore T200), single-cycle kinetics, His-NTCP on Ni2+-NTA chip, peptide as analyte, 1:1 model
T2 chain: T1 sequence (Q14973 1-349)

[5] = molecular target: T3, human NTCP on cells (HepG2-hNTCP-C4 cells overexpressing the human NTCP gene; primary human hepatocytes) (human), Q14973; assay: cell-based or functional assay
T3 chain: T1 sequence (Q14973 1-349)

| Molecule | cytotoxicity (cell survival rate, total cellular DNA) (HepG2-hNTCP-C4 cells) | Kd (human NTCP) [nM] | solubility [µM] | IC50 (HBV genotype D [1]) [nM] | further results |
| --- | --- | --- | --- | --- | --- |
| CC[C@H](C)[C@@H]1NC(=O)[C@H](Cc2ccccc2)NC(=O)[C@@H](Cc2ccc(O)cc2)NC(=O)CSC[C@@H](C(=O)N[C@H](C(N)=O)[C@@H](C)O)NC(=O)[C@H](CO)NC(=O)[C@H](Cc2c[nH]c3ccccc23)NC(=O)[C@H]([C@@H](C)O)NC(=O)[C@H](Cc2c[nH]c3ccccc23)NC(=O)[C@H]([C@@H](C)O)NC(=O)[C@H](Cc2c[nH]c3ccccc23)NC(=O)[C@H]([C@@H](C)O)NC(=O)CN(C)C(=O)[C@H](C(C)C)NC(=O)[C@H]([C@@H](C)CC)NC1=O [WD1] ({CH2CO}-[dY]FIIV[Sar]TWTWTWSCT-NH2; thioether N-14) | without marked cytotoxicity | 15 | ~30 (≈ 57.5 µg/mL) | 850 ± 10 | – |
| CC[C@H](C)[C@@H]1NC(=O)[C@H](Cc2ccc(O)cc2)NC(=O)CSC[C@@H](C(=O)N[C@H](C(N)=O)[C@@H](C)O)NC(=O)[C@H](Cc2ccc(O)cc2)NC(=O)[C@H]([C@@H](C)CC)NC(=O)[C@H](C(C)C)NC(=O)[C@H](Cc2ccc(O)cc2)NC(=O)CNC(=O)[C@@H]2CCCN2C(=O)[C@H](Cc2c[nH]c3ccccc23)NC(=O)[C@H]([C@@H](C)CC)NC(=O)[C@H](Cc2c[nH]c3ccccc23)NC1=O [WL2] ({CH2CO}-YIWIWPGYVIYCT-NH2; thioether N-12) | without marked cytotoxicity | 157 | ~30 (≈ 51.5 µg/mL) | 2540 ± 110 | – |
| CC[C@H](C)[C@@H]1NC(=O)[C@H](Cc2c[nH]c3ccccc23)NC(=O)[C@H]([C@@H](C)CC)NC(=O)[C@H](C(C)C)NC(=O)[C@H](Cc2ccc(O)cc2)NC(=O)CSC[C@@H](C(=O)N[C@H](C(N)=O)[C@@H](C)O)NC(=O)[C@H](Cc2ccc(O)cc2)NC(=O)[C@H](Cc2ccc(O)cc2)NC(=O)[C@H](Cc2ccccc2)NC(=O)[C@H](Cc2c[nH]cn2)NC(=O)[C@H](CC(N)=O)NC(=O)[C@@H]2CCCN2C(=O)[C@H](Cc2c[nH]c3ccccc23)NC1=O [WL4] ({CH2CO}-YVIWIWPNHFYYCT-NH2; thioether N-13) | without marked cytotoxicity | 42 | ~30 (≈ 58.3 µg/mL) | 660 ± 30 | – |
| C=C1[C@H](CO)[C@@H](O)C[C@@H]1n1cnc2c(=O)[nH]c(N)nc21 [entecavir] | – | – | – | – | HBV infection monitored by HBc antigen (HBV genotype D [2]): did not exhibit a significant reduction; HBV infection monitored by HBs antigen (HBV genotype D [2]): did not exhibit a significant reduction |
| cyclosporin A (peptide) | – | – | – | – | 50% inhibitory concentration (IC50), HBs antigen in culture supernatant, HBV infection assay [3]: 3170 nM |
| YVIWIWPNHFYYCT (modifications not checked) [WL4] | – | – | – | – | Kd [4]: 42 nM; 50% inhibitory concentration (IC50), HBs antigen in culture supernatant, HBV infection assay [5]: 660 nM |
